Source: US7476729B2, “Dbait and uses thereof” (Institut Curie, priority 2003, dated 2009)

Columns and labels:
DNA-PK = biological target: T1, DNA-PK (Homo sapiens, UniProt P12956+P13010+P78527); assay: DNA-dependent protein kinase (DNA-PK) activity assay in Hep2 nuclear extract; format: biochemical; settings: 2 μg Dbait, 1.5 μg Hep2 nuclear protein extract
T1 construct: Increasing amounts of Hep2 nuclear extract (cleaned of endogenous DNA by DEAE-Sepharose filtration) were assayed; endogenous in cells; host or cells: Hep2 cells (nuclear extract, DNA removed by DEAE-Sepharose filtration)
Procedure: DNA-PK activity was monitored using the kit SignaTECT DNA-dependent Protein Kinase Assay System (Promega, Madison, USA). Increasing amounts of Hep2 nuclear extract (cleaned of endogenous DNA by DEAE-Sepharose filtration) were assayed in the presence of 250 nM Dbait. Extract, biotinylated peptide substrate and various amount of nuclear extract were incubated 5 minutes at 30° C. with (γ-^32P)ATP according to manufacturer indications. The biotinylated substrate was capture on streptavidine membrane, washed and counted in a scintillation counter. Percentage of phosphorylation is calculated by dividing the bound radioactivity by the total count of (γ-^32P)ATP per sample. Reactions (10 μl) were carried out in 60 mM KOAc, 100 μg/ml BSA, 0.5 mM Mg(Cl)2, 1 μl T4 DNA ligase 10× buffer (Promega, Madison, USA). Nuclear extract and Dbait were incubated 2 minutes before addition of ^32P-labeled DNA (10 ng). Samples were incubated various time at 37° C. before ligation being stopped by 20 mM EDTA and 1 mg/ml Proteinase K addition. Ligation products were analyzed by electrophoresis through 0.7% agarose gels followed by autoradiography and quantification by phosphorimaging.
The kinase activity depended directly on the length and structure of the double-stranded ‘stem’ of the Dbait molecule. […] In addition, various backbone modifications (phosphothioate, methyphosphonate, 3′-3′ linkage) at the free blunt end (up to 3-bp), as well as the internally tagged ligands (e.g. fluorescent dyes), are capable of activating DNA-PK activity.

SK28 xenografted tumors = assay: Radiosensitization of SK28 melanoma xenografted on nude mice; format: in vivo; settings: SK, 6 × 5 Gy, 6 × 60 μg (3 nmole); for Relative risk: reference C* (Mock + irradiation)
Procedure: The protocol of Hep2 was described in FIG. 4.3. Other tumors were treated by a modified protocol where a 5 Gy fractionated irradiation was applied in three consecutive days, and followed four day rest, and the treatment was repeated once. The total irradiation dose (6×5 Gy) is equal to that of the protocol used to treat Hep2 tumor (15×2 Gy).
Descriptive analyses of the tumor response were performed for each treatment and each tumor type. Day 1 was the day of the first treatment session. […] Median lifetime was estimated according to the Kaplan-Meier method. TGD was calculated by subtracting the mean tumor volume quadrupling time of the control group from tumor volume quadrupling times of individual mice in each treated group. The mean TGD was calculated for each treated group using the individual measurements.
The analysis used S-Plus 6.2 version software (MathSoft Inc., Seattle, Wash.) and statEL (ad Science, Paris, France). A global Log Rank was first performed for each group with a same tumor type. Then treatments with Dbait were compared to the mock-treated control. All tests were considered significant at the 0.05 significance level.

GMA32 cells = assay: FACS analysis of sub-G1 cells (cell death) in GMA32 cells; format: cell-based, Chinese hamster; settings: GMA32, 4.5 μg Dbait with lipofectamine, no irradiation or mitotic inhibitor
Procedure: The GMA32 Chinese hamster fibroblast cells permissive of DNA breaks were maintained in MEM medium (Gibco) supplemented with 1 mM sodium pyruvate, 2 mM glutamine, 1×MEM non essential amino acids, 1× penicillin/streptomycin and 10% horse serum. Typically, 2×10^5 to 4×10^5 cells were seeded in medium without antibiotics, in 5 cm diameter Petri dishes 24 hours before the transfection of different Dbait molecules (4.5 μg) with lipofectamine 2000 (LifeTechnologies) as transfection agent (in a 1:3 ratio), according to the manufacturer's instructions. At the end of the transfection the cells were either irradiated (4 Gy) or treated with mitotic inhibitors: nocodazole (200 nM), navelbine (100 nM) or taxol (200 nM).
About 16 hour later the drug was removed and the cells were allowed to recover. Cell irradiation was performed with γ-rays from a ^137Cs source. After a 24 hours recovery, the cells were collected and used either for FACS, western blot analyses or to determine the clonogenicity (survival) and the effect of each treatment.
The M1 phase represents the percentage of cells in sub-G1 stage indicative of cell death.
The experiments were performed with a FACS calibur flow cytometer (Becton Dickinson). Cells were collected, suspended in 1 ml of cold GM buffer (6.5 mM glucose, 137 mM NaCl, 5.4 mM KCl, 2 mM Na2HPO4, 1 mM KHPO4, 0.5 mM EDTA), and stored at 4° C. for at least 2 hours after addition of 3 ml of cold 100% ethanol.
At that stage, cells were eventually washed with 1×PBS, then stained for 30 minutes at room temperature in PI solution (50 μg/ml propidium iodide, 25 μg/ml RNase A in 1×PBS buffer). 10,000 events were analyzed with Cellquest software, and cell aggregates were gated out. The percentage of cells with a sub-G1 content of DNA was scored.

| Substance | DNA-PK activation (kinase activity) (DNA-PK) | Mean % TGD (SK28 xenografted tumors) [%] | Mean TGD (SK28 xenografted tumors) | Median survival time (SK28 xenografted tumors) [days] | Relative risk (SK28 xenografted tumors) | cell death (cells in sub-G1 stage) (GMA32 cells) | Number of cured mice (SK28 xenografted tumors) |
| --- | --- | --- | --- | --- | --- | --- | --- |
| Dbait8H: hairpin double strand DNA with a stem of 8-bp (DNA ACGCACGG; DNA, backbone not given here; hairpin, hexaethyleneglycol loop, 3-bp phosphorothioate at free blunt end) | inefficient | 194 | 19 | 76 | 0.68 | failed to trigger cell death | – |
| Dbait16H: hairpin double strand DNA with a stem of 16-bp (DNA ACGCACGGGTGTTGGG; DNA, backbone not given here; hairpin DNA with hexaethyleneglycol loop, 3-bp phosphorothioate at free blunt end) | inefficient | – | – | – | – | intermediate | – |
| Dbait32H: hairpin double strand DNA with a stem of 32-bp, hexaethyleneglycol linker, phosphorothioate at the free blunt end (DNA ACGCACGGGTGTTGGGTCGTTTGTTCGGATCT; DNA, backbone not given here; hairpin, hexaethyleneglycol loop, 3-bp phosphorothioate at free blunt end) | – | 422 | 64 | 176 | 0.22 | Significant cell death | 2 |
| Dbait32ss: 32-nt single strand DNA (SEQ ID NO: 1) (DNA ACGCACGGGTGTTGGGTCGTTTGTTCGGATCT; DNA, backbone not given here) | – | – | – | – | – | moderate | – |
